# Tests used:
# [1] = molecular target: T1, Protein arginine N-methyltransferase 5 (Homo sapiens, UniProt O14744); assay: Inhibition of PRMT5 human PRMT5 using Biotinylated H4 derived peptide and [3H]-SAM as substrate by radioactive methylation assay
# [2] = molecular target: T1, Protein arginine N-methyltransferase 5; assay: Inhibition of PRMT5 (unknown origin) assessed as enzymatic activity by AlphaLISA assay
# [3] = molecular target: T1, Protein arginine N-methyltransferase 5; assay: Inhibition of human PRMT5 using H4R3 S1ac and [3H]-SAM as substrate by AlphaLISA assay
# [4] = molecular target: T1, Protein arginine N-methyltransferase 5; assay: Inhibition of PRMT5 human PRMT5 using [3H]-SAM as substrate by radioactive methylation assay
# [5] = molecular target: T2, Protein arginine N-methyltransferase 1 (Homo sapiens, UniProt Q99873); assay: Inhibition of human PRMT1 by fluorescence-based SAHH-coupled assay
# T2 sequence (Q99873 whole entry): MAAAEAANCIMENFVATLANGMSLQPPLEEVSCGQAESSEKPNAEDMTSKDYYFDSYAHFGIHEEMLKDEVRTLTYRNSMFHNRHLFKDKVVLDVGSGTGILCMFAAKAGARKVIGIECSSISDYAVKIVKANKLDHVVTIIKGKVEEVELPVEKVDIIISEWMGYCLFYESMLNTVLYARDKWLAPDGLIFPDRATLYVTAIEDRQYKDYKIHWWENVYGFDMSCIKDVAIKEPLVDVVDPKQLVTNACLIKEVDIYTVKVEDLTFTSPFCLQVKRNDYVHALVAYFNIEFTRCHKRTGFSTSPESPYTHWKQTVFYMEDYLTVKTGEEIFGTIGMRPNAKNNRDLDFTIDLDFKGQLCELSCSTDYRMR
# [6] = Inhibition of Trypanosoma brucei PRMT7 by fluorescence-based SAHH-coupled assay
# [7] = molecular target: T1, Protein arginine N-methyltransferase 5; assay: Inhibition of PRMT5 (unknown origin) by AlphaLISA assay
# [8] = molecular target: T2, Protein arginine N-methyltransferase 1; assay: Inhibition of human PRMT1 using H4R3 S1ac and [3H]-SAM as substrate by AlphaLISA assay
# [9] = tested on: A-375; assay: Anticancer activity against human A-375 cells in xenograft model assessed as tumor growth inhibition at 10 mg/kg, qd on a 4 day-on/3 day-off schedule for 26 days relative to control; type: functional; conditions: A-375, 624 h, time 26 day, read-out: TGI
# [10] = tested on: A-375; assay: Antiproliferation activity against human A-375 cells assessed as cell growth inhibition; type: functional, cell-based
# [11] = molecular target: T3, Histone-arginine methyltransferase CARM1 (Homo sapiens, UniProt Q86X55); assay: Inhibition of human PRMT4 by fluorescence-based SAHH-coupled assay
# T3 sequence (Q86X55 whole entry): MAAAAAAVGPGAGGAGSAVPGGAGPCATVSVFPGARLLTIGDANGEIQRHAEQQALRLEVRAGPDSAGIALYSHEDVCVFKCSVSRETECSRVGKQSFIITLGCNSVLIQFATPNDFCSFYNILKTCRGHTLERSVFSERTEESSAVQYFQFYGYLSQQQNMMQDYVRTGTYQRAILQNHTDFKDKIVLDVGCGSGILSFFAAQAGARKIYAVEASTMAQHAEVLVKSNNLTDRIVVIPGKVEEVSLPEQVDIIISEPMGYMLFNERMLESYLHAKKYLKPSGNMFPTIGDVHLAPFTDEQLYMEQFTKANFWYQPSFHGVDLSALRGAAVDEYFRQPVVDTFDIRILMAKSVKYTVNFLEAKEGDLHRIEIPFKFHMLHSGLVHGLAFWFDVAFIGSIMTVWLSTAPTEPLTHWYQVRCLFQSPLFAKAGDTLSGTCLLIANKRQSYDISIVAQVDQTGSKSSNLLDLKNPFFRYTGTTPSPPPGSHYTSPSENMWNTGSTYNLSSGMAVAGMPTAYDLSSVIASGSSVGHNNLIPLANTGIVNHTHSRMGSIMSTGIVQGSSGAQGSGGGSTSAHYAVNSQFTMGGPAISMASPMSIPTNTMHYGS
# [12] = molecular target: T1, Protein arginine N-methyltransferase 5; assay: Inhibition of human PRMT5 by fluorescence-based SAHH-coupled assay
# [13] = tested on: Z-138; assay: Antiproliferative activity against human Z138 cells assessed as cell growth inhibition measured every 4 days upto 8 days by Cell Titer-Glo Luminescent Cell Viability kit method; type: functional, cell-based
# T1 sequence (O14744 whole entry): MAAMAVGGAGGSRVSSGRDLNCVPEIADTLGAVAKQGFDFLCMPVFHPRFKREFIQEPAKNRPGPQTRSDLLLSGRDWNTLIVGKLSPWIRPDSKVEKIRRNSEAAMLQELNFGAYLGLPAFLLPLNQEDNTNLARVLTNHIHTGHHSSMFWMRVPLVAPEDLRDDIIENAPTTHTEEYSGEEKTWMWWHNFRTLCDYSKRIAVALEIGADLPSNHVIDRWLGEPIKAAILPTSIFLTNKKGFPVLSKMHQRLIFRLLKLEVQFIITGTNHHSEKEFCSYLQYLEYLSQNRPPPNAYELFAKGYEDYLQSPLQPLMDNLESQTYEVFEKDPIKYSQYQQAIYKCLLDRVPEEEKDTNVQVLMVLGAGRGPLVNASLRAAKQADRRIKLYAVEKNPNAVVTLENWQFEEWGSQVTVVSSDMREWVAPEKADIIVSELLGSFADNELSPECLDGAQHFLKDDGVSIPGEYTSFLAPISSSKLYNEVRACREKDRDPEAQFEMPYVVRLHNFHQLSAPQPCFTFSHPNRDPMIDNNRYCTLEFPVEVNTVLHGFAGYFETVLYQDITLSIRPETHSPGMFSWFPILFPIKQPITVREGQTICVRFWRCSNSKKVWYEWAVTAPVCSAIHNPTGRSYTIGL
smiles,measurement,setting,value
CCN(CC)CCNC1CCCc2c1[nH]c1ccc(C)cc21 (centres undefined),IC50,[1],5700 nM
COC(=O)c1ccccc1NC(=O)CCN1CCc2ccccc2C1,IC50,[2],34100 nM
COc1cc(Br)cc(/C=C2\SC(c3ccc(C)cc3)=NC2=O)c1O,IC50,[3],6600 nM
Nc1cccc(-c2cn(CC(O)CN3CCc4ccccc4C3)nn2)c1 (centres undefined),IC50,[4],34000 nM
N=C(N)NCCC[C@H](N)C(=O)NCC(=O)N[C@H](CCNC(=N)NCSC[C@H]1O[C@@H](n2cnc3c(N)ncnc32)[C@H](O)[C@@H]1O)C(N)=O,IC50,[5],1700 nM
same,IC50,[6],590 nM
Cc1ccc2[nH]c3c(c2c1)CCCC3NCCCOc1ccc(F)cc1 (centres undefined),IC50,[1],1700 nM
COC(=O)c1ccccc1NC(=O)CSc1nc2ccc(CO)cc2[nH]1,IC50,[1],330 nM
CCc1ccc2oc(-c3cc(/N=C/c4cccc(C)c4O)ccc3O)nc2c1,IC50,[7],60000 nM
O=[N+]([O-])c1cccc(-c2cn(CC(O)CN3CCc4ccccc4C3)nn2)c1 (centres undefined),IC50,[4],5500 nM
Cc1ccc(C2=NC(=O)/C(=C/c3ccc(O)c(O)c3)S2)cc1,IC50,[3],770 nM
same,IC50,[8],10000 nM
Nc1ncnc2c1ccn2[C@@H]1O[C@H]([C@H](O)c2ccc(Cl)cc2)[C@@H](O)[C@H]1O,inhibition in vivo at 10 mg/kg,[9],64%
same,IC50,[10],10.8 nM
COc1ccc(OC)c(NC(=O)CSc2nnc3c4ccccc4c4ccccc4c3n2)c1,IC50,[7],27000 nM
OC(CN1CCc2ccccc2C1)Cn1cc(-c2cccc(NC3CCOCC3)c2)nn1 (centres undefined),IC50,[4],2400 nM
Nc1ncnc2c1ccn2[C@@H]1O[C@H]([C@H](O)c2ccccc2)[C@@H](O)[C@H]1O,IC50,[10],31.5 nM
COc1cc(Cl)cc(/C=C2\SC(c3ccc(C)cc3)=NC2=O)c1O,IC50,[3],13900 nM
COc1cccc(/C=N/c2ccc(O)c(-c3nc4cc(C)ccc4o3)c2)c1O,IC50,[7],8100 nM
C[C@@H]1[C@H](O)[C@@H](CSCCCNC(=N)NCCCC[C@@H](N)C(N)=O)O[C@H]1n1cnc2c(N)ncnc21,IC50,[5],3000 nM
same,IC50,[6],20000 nM
N=C(N)NCCC[C@H](N)C(=O)NCC(=O)N[C@H](CCNC(=N)NCCSC[C@H]1O[C@@H](n2cnc3c(N)ncnc32)[C@H](O)[C@@H]1O)C(N)=O,IC50,[5],5900 nM
same,IC50,[6],830 nM
same,IC50,[11],2.8 nM
same,IC50,[12],0.42 nM
CCOC(=O)c1c(NC(=O)CSc2nnc3c4ccccc4n(CCc4ccccc4)c3n2)sc2c1CCN(C)C2,IC50,[7],6500 nM
C[C@@](O)(c1ccc(Cl)cc1)[C@H]1O[C@@H](n2ccc3c(N)ncnc32)[C@H](O)[C@@H]1O,IC50,[10],44 nM
OC(CN1CCc2ccccc2C1)Cn1cc(-c2cccc(NC3CCC3)c2)nn1 (centres undefined),IC50,[4],720 nM
same,IC50,[13],2600 nM
